Test results reported in patent US9776995B2, “Bicyclic sulfonamide compounds as sodium channel inhibitors” (AMGEN INC., priority 2013, dated 2017).
Like-named read-outs stand apart in the source and are kept apart here.

Molecular target: Nav 1.7 (Homo sapiens (Human), UniProt Q15858)
Experiment: Nav 1.7 in vitro PX assay (PatchXpress whole cell voltage clamp);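 further: holding potential set for 20 to 50% inactivation, sodium current evoked by a 20 ms step to −10 mV, peak current inhibition read after compound exposure, 3–5 cells per concentration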
Assay type: cell-based
[1] = in-vitro Nav 1.7 PX (PatchXpress)

Nav 1.7, sequence (Q15858 whole entry): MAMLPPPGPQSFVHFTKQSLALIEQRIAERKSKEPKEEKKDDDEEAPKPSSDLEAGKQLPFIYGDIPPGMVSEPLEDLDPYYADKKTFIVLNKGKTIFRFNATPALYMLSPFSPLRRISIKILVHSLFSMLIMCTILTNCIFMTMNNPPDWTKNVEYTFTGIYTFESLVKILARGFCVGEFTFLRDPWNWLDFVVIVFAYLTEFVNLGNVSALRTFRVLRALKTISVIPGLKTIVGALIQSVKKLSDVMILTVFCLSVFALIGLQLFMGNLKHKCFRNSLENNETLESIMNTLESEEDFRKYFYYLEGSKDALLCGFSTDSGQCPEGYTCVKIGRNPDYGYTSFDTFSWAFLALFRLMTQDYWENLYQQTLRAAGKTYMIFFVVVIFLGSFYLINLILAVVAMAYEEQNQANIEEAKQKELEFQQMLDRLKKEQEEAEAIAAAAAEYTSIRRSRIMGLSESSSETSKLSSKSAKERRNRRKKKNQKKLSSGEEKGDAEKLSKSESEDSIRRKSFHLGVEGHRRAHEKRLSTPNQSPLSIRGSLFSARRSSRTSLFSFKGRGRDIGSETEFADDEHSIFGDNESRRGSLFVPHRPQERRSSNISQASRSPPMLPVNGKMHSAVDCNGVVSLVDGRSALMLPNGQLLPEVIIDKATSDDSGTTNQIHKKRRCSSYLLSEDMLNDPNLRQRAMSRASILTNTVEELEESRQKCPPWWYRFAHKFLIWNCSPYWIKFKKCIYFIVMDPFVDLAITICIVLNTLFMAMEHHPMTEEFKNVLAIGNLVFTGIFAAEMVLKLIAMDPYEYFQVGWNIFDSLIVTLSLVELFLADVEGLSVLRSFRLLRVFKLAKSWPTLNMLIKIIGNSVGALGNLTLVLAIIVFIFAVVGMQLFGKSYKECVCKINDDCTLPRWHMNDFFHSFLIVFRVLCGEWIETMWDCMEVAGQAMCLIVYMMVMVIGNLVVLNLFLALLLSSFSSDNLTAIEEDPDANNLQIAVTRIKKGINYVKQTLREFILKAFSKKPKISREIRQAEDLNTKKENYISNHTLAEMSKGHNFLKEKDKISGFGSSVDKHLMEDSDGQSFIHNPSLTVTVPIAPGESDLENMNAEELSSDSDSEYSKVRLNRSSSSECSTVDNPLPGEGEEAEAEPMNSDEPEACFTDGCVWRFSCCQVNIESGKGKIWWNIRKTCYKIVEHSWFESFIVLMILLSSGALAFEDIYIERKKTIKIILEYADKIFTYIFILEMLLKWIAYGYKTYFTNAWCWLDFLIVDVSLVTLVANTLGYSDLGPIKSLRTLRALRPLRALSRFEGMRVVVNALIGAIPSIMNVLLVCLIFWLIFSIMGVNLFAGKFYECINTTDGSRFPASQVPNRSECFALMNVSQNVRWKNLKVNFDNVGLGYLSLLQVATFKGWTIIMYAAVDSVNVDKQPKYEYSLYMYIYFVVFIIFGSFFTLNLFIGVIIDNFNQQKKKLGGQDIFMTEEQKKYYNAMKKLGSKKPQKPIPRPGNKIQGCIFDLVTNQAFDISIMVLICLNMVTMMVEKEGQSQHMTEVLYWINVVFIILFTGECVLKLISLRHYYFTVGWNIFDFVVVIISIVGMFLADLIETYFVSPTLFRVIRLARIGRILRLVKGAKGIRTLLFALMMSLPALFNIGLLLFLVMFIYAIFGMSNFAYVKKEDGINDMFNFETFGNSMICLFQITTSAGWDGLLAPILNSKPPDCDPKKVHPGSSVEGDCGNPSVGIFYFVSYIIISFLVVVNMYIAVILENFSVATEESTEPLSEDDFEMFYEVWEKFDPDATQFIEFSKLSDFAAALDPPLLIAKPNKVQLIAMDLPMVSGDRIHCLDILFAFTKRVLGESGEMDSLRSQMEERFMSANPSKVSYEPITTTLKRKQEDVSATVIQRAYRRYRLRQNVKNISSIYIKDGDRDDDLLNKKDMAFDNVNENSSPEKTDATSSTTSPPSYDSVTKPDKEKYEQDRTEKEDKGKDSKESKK

SMILES | IC50 (PatchXpress (PX)) [nM] | other results
COc1cc(-c2cccc(F)c2)c(Cl)cc1-c1nccc2cc(S(=O)(=O)Nc3cscn3)ccc12 [Example 54, 1-(2-CHLORO-3′-FLUORO-5-METHOXY-[1,1′-BIPHENYL]-4-YL)-N-(THIAZOL-4-YL)ISOQUINOLINE-6-SULFONAMIDE] | 493 | 
COc1cc(-c2cccc(F)c2)c(Cl)cc1-c1nnc(OC)c2cc(S(=O)(=O)Nc3ccon3)ccc12 [Example 55, 1-(2-CHLORO-3′-FLUORO-5-METHOXY-[1,1′-BIPHENYL]-4-YL)-N-(ISOXAZOL-3-YL)-4-METHOXYPHTHALAZINE-6-SULFONAMIDE] | 32.6 | 
COc1cn(-c2cc(F)cc(F)c2)c(=O)cc1-c1nccc2cc(S(=O)(=O)Nc3ccon3)ccc12 [Example 56, 1-(1-(3,5-DIFLUOROPHENYL)-5-METHOXY-2-OXO-1,2-DIHYDROPYRIDIN-4-YL)-N-(ISOXAZOL-3-YL)ISOQUINOLINE-6-SULFONAMIDE] | 11800 | 
COc1cc(-c2cccc(F)c2)c(Cl)cc1-c1cn(C)c2cc(S(=O)(=O)Nc3ccon3)ccc12 [Example 57, 3-(2-CHLORO-3′-FLUORO-5-METHOXY-[1,1′-BIPHENYL]-4-YL)-N-(ISOXAZOL-3-YL)-1-METHYL-1H-INDOLE-6-SULFONAMIDE] |  | IC50 [1]: 12900 nM
COc1cc(C(F)(F)F)c(Cl)cc1-c1ncnc2cc(S(=O)(=O)Nc3ccon3)ccc12 [Example 59, 4-(5-CHLORO-2-METHOXY-4-(TRIFLUOROMETHYL)PHENYL)-N-(ISOXAZOL-3-YL)QUINAZOLINE-7-SULFONAMIDE] |  | IC50: 182 nM
COc1cc(C(F)(F)F)c(C)cc1-c1nccc2cc(S(=O)(=O)Nc3ccon3)ccc12 [Example 60, N-(ISOXAZOL-3-YL)-1-(2-METHOXY-5-METHYL-4-(TRIFLUOROMETHYL)PHENYL)ISOQUINOLINE-6-SULFONAMIDE] | 189 | 
COc1cc(-c2cc(F)cc(F)c2)c(C)cc1-c1ncnc2cc(S(=O)(=O)Nc3ccon3)ccc12 [Example 61, 4-(3′,5′-DIFLUORO-5-METHOXY-2-METHYL-[1,1′-BIPHENYL]-4-YL)-N-(ISOXAZOL-3-YL)QUINAZOLINE-7-SULFONAMIDE] | 50.4 | 
COc1cc(-c2ccc(F)c(F)c2)c(C)cc1-c1nccc2cc(S(=O)(=O)Nc3ccon3)ccc12 [Example 62, 1-(3′,4′-DIFLUORO-5-METHOXY-2-METHYL-[1,1′-BIPHENYL]-4-YL)-N-(ISOXAZOL-3-YL)ISOQUINOLINE-6-SULFONAMIDE] | 37.6 | 
COc1cc(-c2ccc(F)c(C3CC3)c2)c(C)cc1-c1ncnc2cc(S(=O)(=O)Nc3ccon3)ccc12 [Example 63, 4-(3′-CYCLOPROPYL-4′-FLUORO-5-METHOXY-2-METHYL-[1,1′-BIPHENYL]-4-YL)-N-(ISOXAZOL-3-YL)QUINAZOLINE-7-SULFONAMIDE] |  | IC50 [1]: 34 nM
COc1nc(-c2cc(F)cc(F)c2)c(C#N)cc1-c1cccc2cc(S(=O)(=O)Nc3ccncn3)ccc12 [Example 64] |  | IC50 [1]: 91 nM
COc1cc(-c2ccc(Cl)c(C)c2)c(Cl)cc1-c1nncc2cc(S(=O)(=O)Nc3ccon3)ccc12 [Example 245, 1-(2,4′-dichloro-5-methoxy-3′-methyl-4-biphenylyl)-N-3-isoxazolyl-6-phthalazinesulfonamide] | 15.4 | 
COc1cc(-c2ccc(C)c(Cl)c2)c(Cl)cc1-c1nncc2cc(S(=O)(=O)Nc3ccon3)ccc12 [Example 246, 1-(2,3′-dichloro-5-methoxy-4′-methyl-4-biphenylyl)-N-3-isoxazolyl-6-phthalazinesulfonamide] | 17.2 | 
COc1cc(Cl)c(C)cc1-c1ncnc2cc(S(=O)(=O)Nc3ccon3)ccc12 [Example 247, 4-(4-chloro-2-methoxy-5-methylphenyl)-N-3-isoxazolyl-7-quinazolinesulfonamide] | 243 | 
COc1cc(Cl)c(C)cc1-c1nccc2cc(S(=O)(=O)Nc3ccon3)ccc12 [Example 248, 1-(4-chloro-2-methoxy-5-methylphenyl)-N-3-isoxazolyl-6-isoquinolinesulfonamide] | 187 | 
COc1cc(C(F)(F)F)c(Cl)cc1-c1nccc2cc(S(=O)(=O)Nc3ccon3)ccc12 [Example 249, 1-(5-chloro-2-methoxy-4-(trifluoromethyl)phenyl)-N-3-isoxazolyl-6-isoquinolinesulfonamide] | 224 | 
COc1cc(C(F)F)c(C)cc1-c1nccc2cc(S(=O)(=O)Nc3ccon3)ccc12 [Example 250, 1-(4-(difluoromethyl)-2-methoxy-5-methylphenyl)-N-3-isoxazolyl-6-isoquinolinesulfonamide] | 728 | 
COc1cc(C(F)F)c(C2CC2)cc1-c1nccc2cc(S(=O)(=O)Nc3ccon3)ccc12 [Example 251, 1-(5-cyclopropyl-4-(difluoromethyl)-2-methoxyphenyl)-N-3-isoxazolyl-6-isoquinolinesulfonamide] | 431 | 
COc1cc(-c2ccc(Cl)c(C)c2)c(C)cc1-c1ncnc2cc(S(=O)(=O)Nc3ccon3)ccc12 [Example 252, 4-(4′-chloro-5-methoxy-2,3′-dimethyl-4-biphenylyl)-N-3-isoxazolyl-7-quinazolinesulfonamide] | 32 | 

SMILES | IC50 (PatchXpress (PX)) [nM] | other results
COc1cc(-c2ccc(Cl)c(C)c2)c(C)cc1-c1nccc2cc(S(=O)(=O)Nc3ccon3)ccc12 [Example 253, 1-(4′-chloro-5-methoxy-2,3′-dimethyl-4-biphenylyl)-N-3-isoxazolyl-6-isoquinolinesulfonamide] | 118 | 
COc1cc(-c2cccc(F)c2)c(Cl)cc1-c1nccc2cc(S(=O)(=O)Nc3ccsn3)ccc12 [Example 254, 1-(2-chloro-3′-fluoro-5-methoxy-4-biphenylyl)-N-3-isothiazolyl-6-isoquinolinesulfonamide] | 289 | 
COc1cc(-c2ccc(Cl)c(C)c2)c(Cl)cc1-c1nncc2cc(S(=O)(=O)Nc3ccsn3)ccc12 [Example 255, 1-(2,4′-dichloro-5-methoxy-3′-methyl-4-biphenylyl)-N-3-isothiazolyl-6-phthalazinesulfonamide] | 320 | 
COc1cc(-c2cc(F)cc(F)c2)c(Cl)cc1-c1nncc2cc(S(=O)(=O)Nc3ccsn3)ccc12 [Example 256, 1-(2-chloro-3′,5′-difluoro-5-methoxy-4-biphenylyl)-N-3-isothiazolyl-6-phthalazinesulfonamide] | 85.2 | 
COc1cc(-c2cccc(F)c2)c(Cl)cc1-c1nccc2cc(S(=O)(=O)Nc3ncco3)ccc12 [Example 257, 1-(2-chloro-3′-fluoro-5-methoxy-4-biphenylyl)-N-1,3-oxazol-2-yl-6-isoquinolinesulfonamide] | 222 | 
COc1cc(C(F)(F)F)c(C2CC2)cc1-c1nccc2cc(S(=O)(=O)Nc3ccon3)ccc12 [Example 258, 1-(5-cyclopropyl-2-methoxy-4-(trifluoromethyl)phenyl)-N-3-isoxazolyl-6-isoquinolinesulfonamide] | 543 | 
COc1cc(-c2cc(C)cc(F)c2)c(C)cc1-c1ncnc2cc(S(=O)(=O)Nc3ccon3)ccc12 [Example 260, 4-(3′-fluoro-5-methoxy-2,5′-dimethyl-4-biphenylyl)-N-3-isoxazolyl-7-quinazolinesulfonamide] | 36.7 | 
COc1cc(-c2ccc(F)c(C)c2)c(C)cc1-c1ncnc2cc(S(=O)(=O)Nc3ccon3)ccc12 [Example 261, 4-(4′-fluoro-5-methoxy-2,3′-dimethyl-4-biphenylyl)-N-3-isoxazolyl-7-quinazolinesulfonamide] | 38.1 | 
COc1cc(-c2cc(C)c(C)cc2C)c(C)cc1-c1ncnc2cc(S(=O)(=O)Nc3ccon3)ccc12 [Example 262, N-3-isoxazolyl-4-(5-methoxy-2,2′,4′,5′-tetramethyl-4-biphenylyl)-7-quinazolinesulfonamide] | 62.5 | 
COc1cc(-c2cccc(C)c2)c(C)cc1-c1ncnc2cc(S(=O)(=O)Nc3ccon3)ccc12 [Example 263, N-3-isoxazolyl-4-(5-methoxy-2,3′-dimethyl-4-biphenylyl)-7-quinazolinesulfonamide] | 102 | 
COc1cc(-c2cccc(Cl)c2)c(C)cc1-c1ncnc2cc(S(=O)(=O)Nc3ccon3)ccc12 [Example 264, 4-(3′-chloro-5-methoxy-2-methyl-4-biphenylyl)-N-3-isoxazolyl-7-quinazolinesulfonamide] | 12.1 | 
COc1cc(-c2cccc(C(F)(F)F)c2)c(C)cc1-c1ncnc2cc(S(=O)(=O)Nc3ccon3)ccc12 [Example 265, N-3-isoxazolyl-4-(5-methoxy-2-methyl-3′-(trifluoromethyl)-4-biphenylyl)-7-quinazolinesulfonamide] | 18.4 | 
COc1ccc(Cl)cc1-c1cc(OC)c(-c2ncnc3cc(S(=O)(=O)Nc4ccon4)ccc23)cc1C [Example 266, 4-(5′-chloro-2′,5-dimethoxy-2-methyl-4-biphenylyl)-N-3-isoxazolyl-7-quinazolinesulfonamide] | 18.1 | 
COc1cc(-c2ccc(C)c(Cl)c2)c(C)cc1-c1ncnc2cc(S(=O)(=O)Nc3ccon3)ccc12 [Example 267, 4-(3′-chloro-5-methoxy-2,4′-dimethyl-4-biphenylyl)-N-3-isoxazolyl-7-quinazolinesulfonamide] | 28.7 | 
COc1cc(-c2cc(C)cc(Cl)c2)c(C)cc1-c1ncnc2cc(S(=O)(=O)Nc3ccon3)ccc12 [Example 268, 4-(3′-chloro-5-methoxy-2,5′-dimethyl-4-biphenylyl)-N-3-isoxazolyl-7-quinazolinesulfonamide] | 23.9 | 
COc1cc(-c2ccc(F)c(Cl)c2)c(C)cc1-c1ncnc2cc(S(=O)(=O)Nc3ccon3)ccc12 [Example 269, 4-(3′-chloro-4′-fluoro-5-methoxy-2-methyl-4-biphenylyl)-N-3-isoxazolyl-7-quinazolinesulfonamide] | 25.2 | 
COc1cc(-c2cc(F)cc(Cl)c2)c(C)cc1-c1ncnc2cc(S(=O)(=O)Nc3ccon3)ccc12 [Example 270, 4-(3′-chloro-5′-fluoro-5-methoxy-2-methyl-4-biphenylyl)-N-3-isoxazolyl-7-quinazolinesulfonamide] | 29.9 | 
COc1cc(-c2ccc(Cl)c(F)c2)c(C)cc1-c1ncnc2cc(S(=O)(=O)Nc3ccon3)ccc12 [Example 271, 4-(4′-chloro-3′-fluoro-5-methoxy-2-methyl-4-biphenylyl)-N-3-isoxazolyl-7-quinazolinesulfonamide] | 47.2 | 
